In publication PMC4035770 (Pharmaceuticals, 2014):
Counter-ions that a name gives are not always drawn.

Columns and labels:
[1] = In vitro metabolic screen in the five media (SGF, SIF, HIM, HLM, PHP), overall statement; assay type: in vitro ADME; conditions: 37 °C, one hour, statement in words
Description: A summary of the oral prodrug candidate matrix we developed is illustrated in Figure 2. It contained six main conditions and can be applied to the development of any drug candidate. The work plan starts out with a concept molecule which in this case was bupropion. At this stage prodrug candidates are identified and the literature is searched for transformations that have been reported and methods used to carry out these transformations. […] After synthesis and purification of each potential prodrug, full spectroscopic characterization was performed. Each prodrug was screened in the metabolic media to assess its stability. Potential prodrug candidates were then selected for further in vitro enzyme kinetic and hydrolysis studies to evaluate the most likely prodrug for further in vivo assessment.
The five media (SGF, SIF, HIM, HLM and PHP) best represent the transit a drug or prodrug would take if delivered by the oral route of administration.

[2] = Screening incubation in USP simulated intestinal fluid (SIF); conditions: incubation 37 °C, one hour, n = 2; <LOD = bupropion, its metabolites or other prodrugs not detected; LOD 0.1 ng/mL
Method: USP simulated intestinal fluid preparation. Monobasic potassium phosphate (0.068 g) was dissolved in 2.5 mL of water and mixed. Sodium hydroxide (0.77 mL of 0.2 M) and water (5.0 mL) were added. Pancreatin (0.1 g) was added and the pH adjusted with either 0.2 M sodium hydroxide or 0.2 M hydrochloric acid to a pH of 6.8 ± 0.1. The solution was diluted to 10 mL with water.
(§1) Pepsin is most efficient at cleaving peptide bonds between hydrophobic and aromatic amino acids such as phenylalanine, tryptophan and tyrosine. In order to simulate the pH and digestive enzymes of the stomach, USP simulated gastric fluid (SGF) was used. Conditions in the intestine were simulated using USP simulated intestinal fluid (SIF).
(§2) One hour metabolism or hydrolysis was considered to be sufficient time to generate detectable levels of metabolites, bearing in mind the likely exposure time in vivo. A blank media was used in each analysis to subtract a background from each LC-MS sample chromatogram. A t0 sample was also used to identify impurities related to each prodrug.
(§3) After one hour incubation of each compound in the selected media, the mixture was quenched with acetonitrile and the sample was centrifuged to remove precipitated proteins. The supernatant solution was analyzed immediately by LC-MS using data dependent acquisition analysis.
(§4) This transformation is commonly used to assess activity of oxidative enzyme CYP2B6 in human liver and intestinal microsomes. […] It was important to report if any of the other prodrugs were detected if for instance a possible multistep-prodrug was found.

[3] = Screening incubation in pooled human plasma (PHP); assay type: in vitro ADME; conditions: incubation 37 °C, one hour, n = 2; <LOD = bupropion, its metabolites or other prodrugs not detected; LOD 0.1 ng/mL
Description: Pooled human plasma solution preparation. Citrated human plasma was pooled together from three separate donors.
Finally, pooled human plasma (PHP) was used to evaluate the prodrug stability/activation in blood since the plasma fraction contains much of the hydrolase activity in blood.

[4] = Screening incubation in USP simulated gastric fluid (SGF); conditions: incubation 37 °C, one hour, n = 2; <LOD = bupropion, its metabolites or other prodrugs not detected; LOD 0.1 ng/mL
Method: USP simulated gastric fluid preparation. Sodium chloride (0.02 g) and purified pepsin (0.032 g) that is derived from porcine stomach mucosa with an activity of 800 to 2,500 units per mg of protein were dissolved in 0.07 mL of concentrated hydrochloric acid and sufficient water to make 10 mL.
as §1, §2, §3, §4

[5] = Microsomal metabolic stability screen, pooled human liver microsomes (HLM); assay type: in vitro ADME; conditions: 10 µM prodrug, 0.1 mg/mL HLM, NADPH regenerating system, 37 °C, 60 min, n = 2; LOD 0.1 ng/mL
Method: Human liver microsome (HLM) stock solution preparation. HLM (0.5 mL) stock was added to PBS solution (9.5 mL). Final concentration; 1 mg/mL. The PBS solution was prepared by addition of one USP PBS tablet (Sigma-Aldrich catalogue number P4417) dissolved in 200 mL deionised water.
(§5) Microsomes, NADPH regenerating solutions A and B were thawed rapidly to 37 °C, then kept on wet ice until ready for use. A stock solution of the prodrug (5 mM) was prepared in ACN. To a 1.7 mL microcentrifuge tube in a 37 °C water bath was added the phosphate buffered saline solution (349 µL), the NADPH regenerating solution A (50 µL), the NADPH regenerating solution B (50 µL), and the prodrug solution (1 µL). After incubation for 5 min, microsome solution (50 µL) was added and the metabolism was initiated. The tube was vortex mixed. The final concentrations in this solution was 10 µM prodrug, 0.1 mg/mL HLM or 0.02 mg/mL HIM, 1.3 mM NADP^+, 0.4 U/mL glucose-6-phosphate dehydrogenase and 0.2% organic solvent. This solution was incubated for 60 min at 37 °C. The reaction was quenched by addition of acetonitrile (500 µL). The mixture was centrifuged at 10,000 × g for 10 min. The supernatant was analyzed by LC-MS analysis.
After passing through the intestinal membrane into the portal circulation the prodrug quickly enters the liver. This metabolic condition was simulated in the present work by using pooled human liver microsomes (HLM).

[6] = Microsomal metabolic stability screen, pooled human intestinal microsomes (HIM); assay type: in vitro ADME; conditions: 10 µM prodrug, 0.02 mg/mL HIM, NADPH regenerating system, 37 °C, 60 min, n = 2; LOD 0.1 ng/mL
Method: Human intestinal microsome (HIM) stock solution preparation. HIM (0.2 mL) stock was added to PBS solution (9.8 mL). Final concentration; 0.2 mg/mL.
as §5
The intestinal cells contain cytochome P450 enzymes, flavin monoxygenases, esterases and UDP glucuroyl transferases. Condition III involved the use of pooled human intestinal microsomes (HIM) in order to simulate the potential metabolism that occurs during absorption and passage through the intestinal wall.

[7] = Michaelis-Menten kinetics of bupropion formation in pooled human liver microsomes; assay type: in vitro ADME; parameters: intrinsic hepatic clearance (Cli, h): unit not given here
Method: Microsomes, NADPH regenerating solutions A and B were thawed rapidly to 37 °C, and then kept on ice until ready for use. Substrate solutions were prepared (1–500 µM) where the maximum concentration of DMSO was 1%, and the concentration of microsomes, NADPH regenerating solution B and phosphate buffer was fixed. After incubation for 5 min, NADPH regenerating solution A was added and the metabolism was initiated. Final volume was 100 μL. The tube was inverted twice and vortex mixed. The final concentrations of prodrug in this solution was 1–500 µM, HLM (0.1 mg/mL) or HIM (0.02 mg/mL), NADP^+ (1.3 mM), glucose-6-phosphate dehydrogenase (0.4 U/mL) and 1.0% DMSO. This solution was incubated for 20 min at 37 °C. The reaction was quenched by addition of 100 µL of acetonitrile. The mixture was centrifuged at 10,000 × g for 10 min. The supernatant was analyzed by LC-MS analysis.

[8] = target: Muscarinic non -selective, central; assay: Pharmacological screen, muscarinic receptor binding
[9] = Aqueous pH stability profile at 40 °C
[10] = cited from earlier work
Nicotinic acetylcholine = assay: Pharmacological screen, nicotinic acetylcholine receptor binding; conditions: Nicotinic acetylcholine
Method: 2.4. Plasma LLOQ/Precision […]
of 10 ng/mL. […] ACN (200 µL) […]
was added and the solution was vortex mixed. The remaining mixture was centrifuged at 10,000 rpm […]
The final concentration was 1 ng/mL. […]
signal to noise ratio of three.
2.6. Brain LLOQ Accuracy/Precision
Aliquots (5 × 200 µL) were […]
transferred to 1.5 mL microcentrifuge tubes.
ACN (300 µL) was added and […]
the solution was vortex mixed. […] 200 µL
The solution was vortex mixed again and analysed by HPLC. Final concentrations were 12.5, 125 ng/mL.
2.7. Pharmacological Screening of N-Methyl Bupropion and Bupropion […]
nicotinic acetylcholine receptor [5,6] and SERT [7,8]. The specific nicotinic acetylcholine assays are […]
and nicotinic acetylcholine α7 [12].
3. Results Method Validation […]
diluent solutions separately.

[11] = parameters: method as in earlier work; conditions: plasma samples; cited from earlier work
[12] = target: T1, Norepinephrine transporter (NET) (Homo sapiens, UniProt P23975); assay: Pharmacological screen, norepinephrine transporter; assay type: binding; conditions: NET
T1 construct: MDS Pharma Services Taiwan
T1 sequence (P23975 whole entry): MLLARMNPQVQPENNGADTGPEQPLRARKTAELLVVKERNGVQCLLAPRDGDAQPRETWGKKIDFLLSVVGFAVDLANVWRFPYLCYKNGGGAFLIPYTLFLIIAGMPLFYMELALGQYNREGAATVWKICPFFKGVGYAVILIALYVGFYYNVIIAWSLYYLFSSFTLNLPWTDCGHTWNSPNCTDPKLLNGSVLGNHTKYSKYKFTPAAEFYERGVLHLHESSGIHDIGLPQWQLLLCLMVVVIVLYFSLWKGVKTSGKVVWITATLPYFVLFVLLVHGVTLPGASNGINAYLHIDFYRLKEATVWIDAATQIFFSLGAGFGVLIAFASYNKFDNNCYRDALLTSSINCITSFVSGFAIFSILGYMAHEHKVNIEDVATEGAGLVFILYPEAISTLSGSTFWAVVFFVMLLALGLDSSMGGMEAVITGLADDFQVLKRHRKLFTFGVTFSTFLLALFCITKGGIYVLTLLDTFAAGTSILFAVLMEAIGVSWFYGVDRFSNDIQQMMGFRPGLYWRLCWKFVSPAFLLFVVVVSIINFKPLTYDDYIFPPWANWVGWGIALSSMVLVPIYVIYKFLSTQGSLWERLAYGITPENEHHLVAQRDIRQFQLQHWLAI

CO/C(=C(/C)N(C)C(C)(C)C)c1cccc(Cl)c1 [Compound 6, E/Z-N,O-dimethylated bupropion]
Product / activation to bupropion or its metabolites on screening in the metabolic media [1]: N-methylbupropion (4)
Primary product detected in media SIF [2]: <LOD
Primary product detected in media PHP [3]: <LOD
Primary product detected in media SGF [4]: <LOD

CC(C(=O)c1cccc(Cl)c1)N(Cc1ccccc1)C(C)(C)C (racemic) [Compound 5, Rac-N-benzyl bupropion]
Primary product detected in media SIF [2]: <LOD
Primary product detected in media HLM [5]: The major product was bupropion
Primary product detected in media PHP [3]: <LOD
Primary product detected in media HIM [6]: The major product was bupropion
Primary product detected in media SGF [4]: <LOD
intrinsic hepatic clearance (Cli, h) ([7]; from HLM Michaelis-Menten parameters): 87
Vmax of bupropion formation ([7]; pooled HLM 0.1 mg/mL, substrate 1–500 µM, 20 min, 37 °C, n = 6): 1323 ± 42.2 pmol/min/mg HLM

CC1C(c2cccc(Cl)c2)=NOCN1C(C)(C)C (racemic) [Compound 10, Rac-oxadiazine of bupropion]
Primary product detected in media SIF [2]: <LOD
Primary product detected in media PHP [3]: <LOD
Primary product detected in media SGF [4]: <LOD

CO/C(=C(/C)N(Cc1ccccc1)C(C)(C)C)c1cccc(Cl)c1 [Compound 7, (E/Z)-O-methyl N-benzyl bupropion]
Primary product detected in media SIF [2]: <LOD
Primary product detected in media HLM [5]: O-demethylated to N-benzylbupropion (5)
Primary product detected in media PHP [3]: <LOD
Primary product detected in media HIM [6]: O-demethylated to N-benzylbupropion (5)
Primary product detected in media SGF [4]: <LOD

Cc1c(-c2cccc(Cl)c2)oc(=O)n1C(C)(C)C [Compound 12, oxazolone of bupropion]
Product / activation to bupropion or its metabolites on screening in the metabolic media [1]: no bupropion or metabolites thereof detected
Primary product detected in media SIF [2]: <LOD
Primary product detected in media HLM [5]: <LOD
Primary product detected in media PHP [3]: <LOD
Primary product detected in media HIM [6]: <LOD
Primary product detected in media SGF [4]: <LOD

CC(NC(C)(C)C)/C(=N/O)c1cccc(Cl)c1 (stereo not drawn) [Compound 9, syn- and anti-bupropion hydroxyimine]
Product / activation to bupropion or its metabolites on screening in the metabolic media [1]: neither bupropion nor any of its metabolites were detected
Primary product detected in media SIF [2]: <LOD
Primary product detected in media HLM [5]: <LOD
Primary product detected in media PHP [3]: <LOD
stability / hydrolysis in simulated gastric fluid (SGF pH 1.2, 37 °C): none was detected
stability at physiological pH (phosphate buffered saline pH 7.4, 37 °C): much greater stability than bupropion
Primary product detected in media HIM [6]: <LOD
Primary product detected in media SGF [4]: <LOD

CC1C(c2cccc(Cl)c2)=NOC(=O)N1C(C)(C)C (racemic) [Compound 11, Rac-oxadiazinone of bupropion]
Product / activation to bupropion or its metabolites on screening in the metabolic media [1]: resistant to all of the screening conditions
Primary product detected in media SIF [2]: <LOD
Primary product detected in media HLM [5]: <LOD
Primary product detected in media PHP [3]: <LOD
Primary product detected in media HIM [6]: <LOD
Primary product detected in media SGF [4]: <LOD

CC(=O)O/C(=C(/C)N(C(C)=O)C(C)(C)C)c1cccc(Cl)c1 [Compound 8, (E/Z)-N,O-diacetylated bupropion]
Product / activation to bupropion or its metabolites on screening in the metabolic media [1]: did not result in any activation back to bupropion or its metabolites
Primary product detected in media SIF [2]: <LOD
Primary product detected in media HLM [5]: <LOD
Primary product detected in media PHP [3]: <LOD
Primary product detected in media HIM [6]: <LOD
Primary product detected in media SGF [4]: <LOD

CC(NC(C)(C)C)C(=O)c1cccc(Cl)c1 (racemic) [Bupropion, Rac-bupropion hydrochloride, reference compound]
IC50 [8]: 86.5 µM
Ki ([8]; Cheng and Prusoff): 27 µM
aqueous degradation rate above pH 12 ([9]; above pH 12): rate of degradation increases significantly
aqueous stability / degradation rate below pH 5 ([9]; below pH 5): stable
aqueous stability profile above pH 5 [10]: poor stability profile
IC50 (Nicotinic acetylcholine): > 100 µM
sample stability in plasma (pH) [11]: stable at low pH
nH (Hill coefficient) [12]: 0.835
